Patent US11542274B1, “Therapeutic compounds and methods of use thereof” (AGENCY FOR SCIENCE, TECHNOLOGY AND RESEARCH (A*STAR), priority 2019, dated 2023)

molecular target: truncated CRBN (319-427) (Homo sapiens (Human), UniProt Q96SW2); experiment: Fluorescence binding assay (fluorescence quenching), affinity to E3-CEREBLON (CRBN)-ubiquitin ligase; details: ubiquitination moiety, pH 6.5
Procedure: Fluorescence quenching end point measurements were performed in black polystyrene 384-plates on Tecan Safire monochromator reader with the following settings: excitation 280 nm; excitation bandwidth 10.0 nm; emission collection 340 nm; emission bandwidth 20.0 nm; high sensitivity flash mode; integration time 40 μS; delay 0 μm. All measurements were done in duplicates; GraphPad Prism 5.03 was used for data evaluation, curve fitting, plotting and determination of IC50 values.
Serial dilutions of each tested ligands were mixed with truncated CRBN (319-427) to a final volume of 25 μL in the assay buffer (20 mM sodium phosphate buffer, pH 6.5, with 150 mM sodium chloride). The final concentration of CRBN in all assay will be 5-10 μM with DMSO level at 4%. A control lanes were prepared with only tested ligands without the addition of CRBN, top up with assay buffer to 25 μL. Plates were incubated for 5 minutes and analyzed using the monochromator plate reader.
IC50 is the compound concentration that causes 50% quenching of the desired activity.

Chain of truncated CRBN (319-427) (Q96SW2 319-427): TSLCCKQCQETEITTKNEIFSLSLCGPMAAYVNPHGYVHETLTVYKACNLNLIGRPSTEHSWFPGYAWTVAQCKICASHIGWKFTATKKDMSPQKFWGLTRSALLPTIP

| IC50 | SMILES |
| --- | --- |
| 100 to 300 µM | O=C1Cc2ccc(-c3ccncc3)cc2N1 [Compound 002, 6-(pyridin-4-yl)indolin-2-one] |
| > 300 µM | O=C1Cc2ccc(-c3cccnc3)cc2N1 [Compound 003, 6-(pyridin-3-yl)indolin-2-one] |
| 100 to 300 µM | O=C1Cc2ccc(-c3ccccn3)cc2N1 [Compound 004, 6-(pyridin-2-yl)indolin-2-one] |
| 100 to 300 µM | Cc1cc(-c2ccc3c(c2)NC(=O)C3)ccn1 [Compound 005, 6-(2-methylpyridin-4-yl)indolin-2-one] |
| > 300 µM | Cc1cnccc1-c1ccc2c(c1)NC(=O)C2 [Compound 006, 6-(3-methylpyridin-4-yl)indolin-2-one] |
| 100 to 300 µM | CC1C(=O)Nc2cc(-c3ccncc3)ccc21 (stereo not shown) [Compound 007, 3-methyl-6-(pyridin-4-yl)indolin-2-one] |
| > 300 µM | CN1C(=O)Cc2ccc(-c3ccncc3)cc21 [Compound 008, 1-methyl-6-(pyridin-4-yl)indolin-2-one] |
| > 300 µM | O=C1Cc2ccc(-c3ccnc(Cl)c3)cc2N1 [Compound 009, 6-(2-chloropyridin-4-yl)indolin-2-one] |
| 100 to 300 µM | COc1cc(-c2ccc3c(c2)NC(=O)C3)ccn1 [Compound 010, 6-(2-methoxypyridin-4-yl)indolin-2-one] |
| 100 to 300 µM | CCOC(=O)c1cc(-c2ccc3c(c2)NC(=O)C3)ccn1 [Compound 014, ethyl 4-(2-oxoindolin-6-yl)picolinate] |
| > 300 µM | Cn1cc(-c2ccc3c(c2)NC(=O)C3)cn1 [Compound 015, 6-(1-methyl-1H-pyrazol-4-yl)indolin-2-one] |
| > 300 µM | O=C1Cc2ccc(-c3ccc4[nH]ccc4c3)cc2N1 [Compound 016, 6-(1H-indol-5-yl)indolin-2-one] |
| > 300 µM | O=C1Cc2ccc(-c3cnc4[nH]ccc4c3)cc2N1 [Compound 017, 6-(1H-pyrrolo[2,3-b]pyridin-5-yl)indolin-2-one] |
| 1 to 100 µM | O=C1Cc2ccc(-c3ccc(CN4CCNCC4)cc3)cc2N1 [Compound 018, 6-(4-(piperazin-1-ylmethyl)phenyl)indolin-2-one] |
| > 300 µM | O=C1Cc2ccc(-c3cccc(CN4CCNCC4)c3)cc2N1 [Compound 019, 6-(3-(piperazin-1-ylmethyl)phenyl)indolin-2-one] |
| > 300 µM | O=C1Cc2ccc(-c3ccc(C(=O)N4CCNCC4)cc3)cc2N1 [Compound 020, 6-(4-(piperazine-1-carbonyl)phenyl)indolin-2-one] |
| > 300 µM | O=C1Cc2ccc(-c3cccc(C(=O)N4CCNCC4)c3)cc2N1 [Compound 021, 6-(3-(piperazine-1-carbonyl)phenyl)indolin-2-one] |
| 1 to 100 µM | CNC(=O)c1ccc(-c2ccc3c(c2)NC(=O)C3)cc1 [Compound 022, N-methyl-4-(2-oxoindolin-6-yl)benzamide] |
| 1 to 100 µM | CNC(=O)c1cccc(-c2ccc3c(c2)NC(=O)C3)c1 [Compound 023, N-methyl-3-(2-oxoindolin-6-yl)benzamide] |
| > 300 µM | O=C1Cc2ccc(C(=O)Nc3ccccc3)cc2N1 [Compound 024, 2-oxo-N-phenylindoline-6-carboxamide] |

| IC50 | SMILES |
| --- | --- |
| > 300 µM | O=C1Cc2ccc(C(=O)NC3CCCCC3)cc2N1 [Compound 025, N-cyclohexyl-2-oxoindoline-6-carboxamide] |
| > 300 µM | CN1CCC(NC(=O)c2ccc3c(c2)NC(=O)C3)CC1 [Compound 027, N-(1-methylpiperidin-4-yl)-2-oxoindoline-6-carboxamide] |
| > 300 µM | CN1CCN(CCNC(=O)c2ccc3c(c2)NC(=O)C3)CC1 [Compound 028] |
| > 300 µM | O=C1Cc2ccc(C(=O)N3CCCCC3)cc2N1 [Compound 029, 6-(piperidine-1-carbonyl)indolin-2-one] |
| > 300 µM | O=C1Cc2cc(Cl)c(C(=O)N3CCCCC3)cc2N1 [Compound 030, 5-chloro-6-(piperidine-1-carbonyl)indolin-2-one] |
| 100 to 300 µM | O=C1Cc2ccc(C(=O)Nc3ccncc3)cc2N1 [Compound 031, 2-oxo-N-(pyridin-4-yl)indoline-6-carboxamide] |
| 100 to 300 µM | O=C1Cc2ccc(NC(=O)c3ccncc3)cc2N1 [Compound 032, N-(2-oxoindolin-6-yl)isonicotinamide] |
| > 300 µM | O=C1Cc2ccc(C(=O)NCc3cccnc3)cc2N1 [Compound 033, 2-oxo-N-(pyridin-3-ylmethyl)indoline-6-carboxamide] |
| > 300 µM | O=C1Cc2ccc(OC3CCNCC3)cc2N1 [Compound 034, 6-(piperidin-4-yloxy)indolin-2-one] |
| > 300 µM | O=C1Cc2ccc(Oc3ccnc(Cl)n3)cc2N1 [Compound 035, 6-((2-chloropyrimidin-4-yl)oxy)indolin-2-one] |
| > 300 µM | COC(=O)COc1ccc2c(c1)NC(=O)C2 [Compound 036, methyl 2-((2-oxoindolin-6-yl)oxy)acetate] |
| > 300 µM | O=C1Cc2cccc(-c3ccncc3)c2N1 [Compound 037, 7-(pyridin-4-yl)indolin-2-one] |
| > 300 µM | O=C1Cc2c(cccc2-c2ccncc2)N1 [Compound 038, 4-(pyridin-4-yl)indolin-2-one] |
| 100 to 300 µM | O=C1Cc2cc(-c3ccncc3)ccc2N1 [Compound 039, 5-(pyridin-4-yl)indolin-2-one] |
| > 300 µM | COc1cc(-c2ccc3c(c2)CC(=O)N3)ccn1 [Compound 041, 5-(2-methoxypyridin-4-yl)indolin-2-one] |
| 100 to 300 µM | Cc1cc(N)ncc1-c1ccc2c(c1)CC(=O)N2 [Compound 043, 5-(6-amino-4-methylpyridin-3-yl)indolin-2-one] |
| 100 to 300 µM | Cc1nc(N)ccc1-c1ccc2c(c1)CC(=O)N2 [Compound 044, 5-(6-amino-2-methylpyridin-3-yl)indolin-2-one] |
| 100 to 300 µM | CNc1ccc(-c2ccc3c(c2)CC(=O)N3)cn1 [Compound 046, 5-(6-(methylamino)pyridin-3-yl)indolin-2-one] |
| 100 to 300 µM | CNc1cc(-c2ccc3c(c2)CC(=O)N3)ccn1 [Compound 047, 5-(2-(methylamino)pyridin-4-yl)indolin-2-one] |
| 100 to 300 µM | CC(=O)Nc1ncc(-c2ccc3c(c2)CC(=O)N3)cc1C [Compound 048, N-(3-methyl-5-(2-oxoindolin-5-yl)pyridin-2-yl)acetamide] |

| IC50 | SMILES |
| --- | --- |
| > 300 µM | CC(=O)Nc1ccc(-c2ccc3c(c2)CC(=O)N3)c(C)n1 [Compound 049, N-(6-methyl-5-(2-oxoindolin-5-yl)pyridin-2-yl)acetamide] |
| 1 to 100 µM | CC(=O)Nc1cc(C)c(-c2ccc3c(c2)CC(=O)N3)cn1 [Compound 050, N-(4-methyl-5-(2-oxoindolin-5-yl)pyridin-2-yl)acetamide] |
| > 300 µM | O=C1Cc2cc(-c3ccccc3)ccc2N1 [Compound 051, 5-phenylindolin-2-one] |
| > 300 µM | CC(C)(C)OC(=O)N1CCN(C(=O)c2ccc(-c3ccc4c(c3)CC(=O)N4)cc2)CC1 [Compound 052, tert-butyl 4-(4-(2-oxoindolin-5-yl)benzoyl)piperazine-1-carboxylate] |
| 1 to 100 µM | CC(C)(C)OC(=O)N1CCN(C(=O)c2cccc(-c3ccc4c(c3)CC(=O)N4)c2)CC1 [Compound 053, tert-butyl 4-(3-(2-oxoindolin-5-yl)benzoyl)piperazine-1-carboxylate] |
| 100 to 300 µM | O=C1Cc2cc(-c3ccc(C(=O)N4CCNCC4)cc3)ccc2N1 [Compound 054, 5-(4-(piperazine-1-carbonyl)phenyl)indolin-2-one] |
| 100 to 300 µM | O=C1Cc2cc(-c3cccc(C(=O)N4CCNCC4)c3)ccc2N1 [Compound 055, 5-(3-(piperazine-1-carbonyl)phenyl)indolin-2-one] |
| 100 to 300 µM | O=C1Cc2cc(-c3cccnc3)ccc2N1 [Compound 056, 5-(pyridin-3-yl)indolin-2-one] |
| > 300 µM | O=C1Cc2cc(-c3ccc(N4CCCCC4)nc3)ccc2N1 [Compound 057, 5-(6-(piperidin-1-yl)pyridin-3-yl)indolin-2-one] |
| 100 to 300 µM | O=C1Cc2cc(C(=O)N3CCCCC3)ccc2N1 [Compound 058, 5-(piperidine-1-carbonyl)indolin-2-one] |
| 100 to 300 µM | O=C1Cc2cc(NC(=O)c3ccncc3)ccc2N1 [Compound 059, N-(2-oxoindolin-5-yl)isonicotinamide] |
| 100 to 300 µM | CC(=O)N1CCC(C(=O)Nc2ccc3c(c2)CC(=O)N3)CC1 [Compound 060, 1-acetyl-N-(2-oxoindolin-5-yl)piperidine-4-carboxamide] |
| > 300 µM | O=C1Nc2cc(-c3ccncc3)ccc2C1(F)F [Compound 061, 3,3-difluoro-6-(pyridin-4-yl)indolin-2-one] |
| > 300 µM | CC1(C)C(=O)Nc2cc(-c3ccncc3)ccc21 [Compound 062, 3,3-dimethyl-6-(pyridin-4-yl)indolin-2-one] |
| > 300 µM | O=C1Cc2ccc(C3=CCN(C(=O)OCc4ccccc4)CC3)cc2N1 [Compound 063, benzyl 4-(2-oxoindolin-6-yl)-3,6-dihydropyridine-1(2H)-carboxylate] |
| > 300 µM | O=C1Cc2ccc(-c3ccc(N4CCCCC4)nc3)cc2N1 [Compound 064, 6-(6-(piperidin-1-yl)pyridin-3-yl)indolin-2-one] |
| > 300 µM | O=C1Cc2ccc(-c3ccc(N4CCNCC4)nc3)cc2N1 [Compound 065, 6-(6-(piperazin-1-yl)pyridin-3-yl)indolin-2-one] |
| > 300 µM | CCOC(=O)c1cc(-c2ccc3c(c2)NC(=O)C3)ccn1 [Compound 066, ethyl 4-(2-oxoindolin-6-yl)picolinate] |
